This note sets out measurements from patent publication US20240182406A1, “COMPOUNDS AS SOLUBLE EPOXIDE HYDROLASE INHIBITORS” (UNIVERSITAT DE BARCELONA, priority 2021, published 2024).

Marks after values point to notes of the source that are not given here.

For one assay, the system named is mouse primary microglia. The assay can be described thus: AβO-induced microglial activation, qPCR. In kind it is cell-based. The settings on record: pretreated with compound followed by Aβ1-42 (2 μM). How it is done:
To validate the inhibition efficacy of sEH, 3×10^5 microglia isolated from CD1 mouse brain were seeded onto 12 well culture plates in microglia medium.
(§1) Total RNAs were isolated from microglia or astrocyte using a Quick-RNA kit (Zymo Research, Inc., Irvine, CA, USA). The concentration of total RNAs was measured using a UV-Vis spectrophotometer (NanoDrop8000, Thermo Fisher Scientific Inc., Wilmington, DE, USA) and reverse-transcribed with a high-capacity cDNA reverse transcription kit (Applied Biosystems, Carlsbad, CA, USA). Gene expression was quantified by Fast SYBR green real-time PCR on a Quantstudio 5 system (Applied Biosystems). The primer sequences are listed below (Table 8). Data were analyzed according to the comparative Ct method. Glyceraldehyde 3-phosphate dehydrogenase (Gapdh) was used to normalize the amounts of cDNA within each sample.

A further assay has as its system C57BL/6 mice. The experiment in a line: Cerulein-induced acute pancreatitis murine model. In kind it is in vivo, mouse. The text has this:
Acute pancreatitis (AP) is a potentially life-threatening gastrointestinal disease, and its incidence has been increasing over the last few decades. The onset of the disease is thought to be triggered by intra-acinar cell activation of digestive enzymes that results in interstitial edema, inflammation and acinar cell death that often leads to a systemic inflammation response. […] The experimental procedure for the in vivo efficacy study followed already published protocols (Mol Pharmacol. 2015 August; 88(2):281-90)
In vivo efficacy study. Forty-one male C57BL/6 mice (eight week-old; approximately 24 g) were supplied by Envigo (Barcelona, Spain) (Ref. 16512). During the experimental procedure, animals were identified with permanent marker (tail code numbers). […] Animals were kept in an environmentally controlled room (ventilation, temperature 22±2° C. and humidity 35-65%) on a 12-h light/dark cycle. A period of 7 days of acclimatization underwent between the date of arrival and the start of the procedure. […] The maintenance diet was supplied by Harlan Interfauna Ibérica S. L. (2018 Harlan Teklad Global Diets). Diet will be provided to the animals ad libitum, but they were fasted overnight before first cerulein injection, and food was replaced after last cerulein injection. Tap water was supplied by CASSA (Servei d'Aigües de Sabadell) ad libitum. The animals were maintained in accordance with European Directive for the Protection of Vertebrate Animals Used for Experimental and other Scientific Purposes (86/609/EU). Decree 214/1997 of 30th July. Ministry of agriculture, livestock and fishing of the Autonomous Government of Catalonia, Spain. Royal Decree 53/2013 of 1st February (Spain). All the experimental procedures were approved by the Ethical Committee on human and animal experimentation (CEEAH) of Universitat Autònoma de Barcelona (UAB) (procedure number: 4107) and by the Animal Experimentation Commission of the Generalitat de Catalunya (Catalan Government) (DAAM: 10146). […]

A further assay relates to human primary astrocytes. The assay can be described thus: T/I/C-induced reactive astrocyte conversion, qPCR and Western blotting. The assay is classed as cell-based. As to the method: To validate the inhibition efficacy of sEH, 10^6 astrocytes isolated from CD1 mouse brain (Sciencell #M1800) or primary human astrocyte (Sciencell #1800) were seeded onto 6 well culture plates in astrocyte medium (Sciencell #1831 or #1801).
as §1
Proteins were extracted from microglia or astrocyte by RIPA buffer (Thermo Fisher Scientific Inc.). Extracted proteins were separated by SDS/PAGE and subsequently transferred to nitrocellulose membranes (Bio-Rad, Hercules, CA, USA). […] Membranes visualized on Odyssey (LI-COR Biosciences, NE, USA).

The next assay concerns CD1 mice. The experiment in a line: Seizure assay (pentylenetetrazole, PTZ test). In kind it is in vivo, mouse. As to the method: Test compounds were dissolved in 20% hydroxypropyl-beta-cyclodextrin and concentration was calculated according to the animal weigh to reach the precise dose. Animals were housed in standard care facilities with a 12 hours light-dark cycle with free access to water and food.
To investigate the ability of compounds to cross the blood-brain barrier (BBB), a standard acute test involving the administration of pro-convulsant pentylenetetrazole (PTZ) was employed [Inceoglu et al, PLoS ONE, 2013, 8(12), e80922; WO 2015/148954 A1]. In the test, PTZ was administered at 85 mg/Kg by subcutaneous route, time to onset of first clonic seizure, average of clonic seizures, tonic seizure latency and lethality were monitored for 30 min. Vehicles or compounds were administered by gavage at 5 mg/kg 1 h prior to pro-convulsant.

Where [1] appears, read: 5 mg/kg by gavage 1 h prior to PTZ 85 mg/Kg s.c., monitored 30 min.

As to `O=C(NC12CC3CC(Cl)(CC(C1)c1ccccc13)C2)N[C@H]1CC[C@H](Oc2ccc(C(=O)O)cc2)CC1` [Example 2, 4-[((1r,4r)-4-(3-(9-chloro-5,6,8,9,10,11-hexahydro-7H-5,9:7,11-dimethanobenzo[9]annulen-7-yl)ureido)cyclohexyl)oxy]benzoic acid], the “mRNA for pro-inflammatory cytokines II-6 and II-1b” value with mouse primary microglia is listed as “prevented”. Further, the “histologic analysis of pancreas (H&E), severity of cerulein-induced pancreatitis” value in the assay with C57BL/6 mice (both doses 0.1 and 0.3 mg/kg IP) is given as “ameliorated cerulein-induced effects”. Further, in the assay with C57BL/6 mice (cerulein 50 μg/kg IP x12, single dose 0.3 or 0.1 mg/kg IP, only 0.3 mg/kg significant (p<0.01 vs Cerulein)), the “body weight change at end of study” value is listed as “increased body weight”. For the same compound, the “histologic analysis of pancreas (H&E), pancreatic damage, edema, neutrophils infiltration” value in the assay with C57BL/6 mice (higher dose 0.3 mg/kg IP) was “more efficiently reversed the pancreatic damage, edema and neutrophils infiltration”. In the assay with human primary astrocytes (T/I/C 24 h, qPCR), the “induction of inflammatory mediators Nos and Cox2 mRNA” value is “prevented the induction”; the “mRNA levels of reactive astrocyte markers Cxcl10 and C3” value was “significantly reduced”. For the same compound, the “protein levels of C3 and phosphor-p38” value in the assay on human primary astrocytes (T/I/C-induced reactive astrocyte, 30 μM (FIG. 5f)) was “decreased”. For the same compound, in the assay with CD1 mice (setting [1]), the Average clonic seizure is on record as 1.25, the “Mean time to clonic seizure latency” value was found to be 1006.5 s and the “Protected from tonic/total (Mortality)” value is recorded as 6/6****. The “Mean time to tonic seizure” value in the assay on CD1 mice (5 mg/kg by gavage 1 h prior to PTZ 85 mg/Kg s.c., animals without tonic seizure within 30 min excluded) came to 0.00 s. Besides, in the assay on CD1 mice (5 mg/kg by gavage 1 h prior to PTZ 85 mg/Kg s.c., animals without tonic seizure within 30 min excluded, listed as compound of Example 2), the “Mean time to tonic seizure in seconds” value is listed as “delay onset of tonic seizures”. The “protection from convulsions and associated lethality” value with CD1 mice (PTZ test, 5 mg/kg by gavage) was “protect mice from convulsions and associated lethality”.
